Data published in US20050049309A1, “Regulation of HIF protein levels via deubiquitination pathway” (priority 2003, published 2005).
Where a SMILES comes first, the peptide text is derived from it. [ ]: non-standard residue; d: D form. The star is where a group is joined. Nva = CCC[C@H](N)C(=O)O; Cbz = O=C(OCc1ccccc1)*

Assays:
HIF-1α = format: cell-based, human
hypoxic cells = conditions: cited from earlier work
[1] = cited from earlier work
HIF-1α protein = conditions: recent studies (literature); cited from earlier work
[2] = tested on: deubiquitinase enzyme activity (HT-29 cell lysate) on polyubiquitinated HIF-1α; format: biochemical, human

C[C@@H]1C[C@@H]([C@H](O)CC2CC(=O)NC(=O)C2)C(=O)[C@@H](C)C1 [Cycloheximide, cycloheximide]
Ubiquitination of HIF-1α with proteasome inhibited (HIF-1α): no affect

O=C(O)CCCc1ccc(N(CCCl)OCCCl)cc1 [CHL-HD]
Toxicity with reducing enzymes under hypoxia (hypoxic cells): greater toxicity
In vivo toxicity [1]: minimal in vivo toxicity

C=CCNC1=C2C[C@@H](C)C[C@H](OC)[C@H](O)[C@@H](C)/C=C(\C)[C@H](OC(N)=O)[C@@H](OC)/C=C\C=C(/C)C(=O)NC(=CC1=O)C2=O [17-AAG, 17-allylamino-17-desmethoxygeldanamycin]
HIF-1α protein in cell-lines lacking pVHL (HIF-1α protein): promote the loss of HIF-1α protein

CCC[C@@H](C=O)NC(=O)[C@H](CC(C)C)NC(=O)[C@H](CC(C)C)NC(=O)OCc1ccccc1 [LLnV, N-carbobenzoxy-Leu-Leu-norvalinal] (Cbz-Leu-Leu-[Nva]-aldehyde)
Deubiquitination of HIF-1α in vitro [2]: did not affect
